# Laboratory results from ChEMBL document CHEMBL4177603 (Bioorg Med Chem Lett, 2017).
# pIC50: −log10 of the molar value.
# Experiments:
# [1] = target: T1, Sodium channel protein type 9 subunit alpha (Homo sapiens, UniProt Q15858); test: Inhibition of human Nav1.7 expressed in HEK cells by automated patchXpress electrophysiology method; type: cell-based
# [2] = target: T1, Sodium channel protein type 9 subunit alpha; test: Inhibition of human Nav1.7 expressed in HEK cells by patch clamp electrophysiology method; type: cell-based
# [3] = target: Sodium channel protein type 5 subunit alpha (Homo sapiens, UniProt Q14524); test: Inhibition of human Nav1.5 expressed in HEK cells by automated patchXpress electrophysiology method; type: ADME, cell-based
# [4] = Solubility of the compound in aqueous buffer at pH 3; type: physicochemical
# [5] = Solubility of the compound in aqueous buffer at pH 5.1; type: physicochemical
# [6] = Solubility of the compound in aqueous buffer at pH 4.2; type: physicochemical
# [7] = Solubility of the compound in aqueous buffer at pH 7.2; type: physicochemical
# T1 sequence (Q15858 whole entry): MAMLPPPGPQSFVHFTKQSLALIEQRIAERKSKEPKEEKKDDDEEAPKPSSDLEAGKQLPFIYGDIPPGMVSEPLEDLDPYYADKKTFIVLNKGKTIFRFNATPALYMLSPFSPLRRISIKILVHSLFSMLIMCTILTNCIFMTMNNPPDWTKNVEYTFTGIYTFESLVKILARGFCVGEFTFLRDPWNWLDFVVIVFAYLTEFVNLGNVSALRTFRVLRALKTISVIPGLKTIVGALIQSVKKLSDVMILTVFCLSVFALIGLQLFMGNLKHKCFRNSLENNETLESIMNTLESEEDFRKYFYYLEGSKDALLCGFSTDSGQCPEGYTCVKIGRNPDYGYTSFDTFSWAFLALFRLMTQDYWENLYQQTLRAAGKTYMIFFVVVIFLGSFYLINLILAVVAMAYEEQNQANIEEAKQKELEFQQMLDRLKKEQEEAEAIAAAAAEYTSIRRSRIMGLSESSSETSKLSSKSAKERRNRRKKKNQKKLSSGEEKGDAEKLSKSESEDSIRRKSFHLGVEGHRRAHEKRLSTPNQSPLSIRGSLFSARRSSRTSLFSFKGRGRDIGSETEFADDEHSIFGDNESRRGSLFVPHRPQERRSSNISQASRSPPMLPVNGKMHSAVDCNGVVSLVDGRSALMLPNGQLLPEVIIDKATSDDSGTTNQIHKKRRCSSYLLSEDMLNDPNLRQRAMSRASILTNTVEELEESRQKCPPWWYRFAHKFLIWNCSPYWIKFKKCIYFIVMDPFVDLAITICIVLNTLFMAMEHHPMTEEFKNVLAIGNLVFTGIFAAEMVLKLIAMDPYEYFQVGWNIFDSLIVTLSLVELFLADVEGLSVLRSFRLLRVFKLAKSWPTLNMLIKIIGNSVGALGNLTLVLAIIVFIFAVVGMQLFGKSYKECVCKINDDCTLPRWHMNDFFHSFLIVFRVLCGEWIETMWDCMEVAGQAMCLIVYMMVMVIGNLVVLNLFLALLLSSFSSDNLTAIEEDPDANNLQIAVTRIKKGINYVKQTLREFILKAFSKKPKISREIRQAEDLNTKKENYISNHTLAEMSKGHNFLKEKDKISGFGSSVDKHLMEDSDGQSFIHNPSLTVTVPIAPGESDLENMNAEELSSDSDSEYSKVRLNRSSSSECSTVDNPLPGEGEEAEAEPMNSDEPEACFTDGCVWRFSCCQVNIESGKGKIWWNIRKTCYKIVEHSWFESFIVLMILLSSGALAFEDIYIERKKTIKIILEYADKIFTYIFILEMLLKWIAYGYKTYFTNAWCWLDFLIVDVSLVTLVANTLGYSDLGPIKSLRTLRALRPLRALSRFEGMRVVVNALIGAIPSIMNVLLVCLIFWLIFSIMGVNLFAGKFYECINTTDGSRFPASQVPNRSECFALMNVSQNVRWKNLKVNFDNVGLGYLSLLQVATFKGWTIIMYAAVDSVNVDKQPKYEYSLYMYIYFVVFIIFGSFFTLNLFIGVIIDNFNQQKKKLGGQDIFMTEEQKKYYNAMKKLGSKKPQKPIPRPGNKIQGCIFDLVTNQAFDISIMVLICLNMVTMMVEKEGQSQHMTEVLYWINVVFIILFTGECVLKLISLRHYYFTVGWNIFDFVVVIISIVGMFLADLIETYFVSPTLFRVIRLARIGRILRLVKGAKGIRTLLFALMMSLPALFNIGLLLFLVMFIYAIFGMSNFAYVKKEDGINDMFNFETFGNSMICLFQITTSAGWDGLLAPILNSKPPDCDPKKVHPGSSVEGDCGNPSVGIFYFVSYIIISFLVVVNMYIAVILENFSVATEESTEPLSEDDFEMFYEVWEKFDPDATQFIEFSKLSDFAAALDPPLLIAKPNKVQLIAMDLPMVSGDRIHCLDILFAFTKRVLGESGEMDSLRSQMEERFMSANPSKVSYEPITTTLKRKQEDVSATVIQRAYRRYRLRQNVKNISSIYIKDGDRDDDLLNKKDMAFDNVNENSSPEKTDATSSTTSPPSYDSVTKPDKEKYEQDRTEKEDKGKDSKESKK
# Sodium channel protein type 5 subunit alpha, sequence (Q14524 whole entry): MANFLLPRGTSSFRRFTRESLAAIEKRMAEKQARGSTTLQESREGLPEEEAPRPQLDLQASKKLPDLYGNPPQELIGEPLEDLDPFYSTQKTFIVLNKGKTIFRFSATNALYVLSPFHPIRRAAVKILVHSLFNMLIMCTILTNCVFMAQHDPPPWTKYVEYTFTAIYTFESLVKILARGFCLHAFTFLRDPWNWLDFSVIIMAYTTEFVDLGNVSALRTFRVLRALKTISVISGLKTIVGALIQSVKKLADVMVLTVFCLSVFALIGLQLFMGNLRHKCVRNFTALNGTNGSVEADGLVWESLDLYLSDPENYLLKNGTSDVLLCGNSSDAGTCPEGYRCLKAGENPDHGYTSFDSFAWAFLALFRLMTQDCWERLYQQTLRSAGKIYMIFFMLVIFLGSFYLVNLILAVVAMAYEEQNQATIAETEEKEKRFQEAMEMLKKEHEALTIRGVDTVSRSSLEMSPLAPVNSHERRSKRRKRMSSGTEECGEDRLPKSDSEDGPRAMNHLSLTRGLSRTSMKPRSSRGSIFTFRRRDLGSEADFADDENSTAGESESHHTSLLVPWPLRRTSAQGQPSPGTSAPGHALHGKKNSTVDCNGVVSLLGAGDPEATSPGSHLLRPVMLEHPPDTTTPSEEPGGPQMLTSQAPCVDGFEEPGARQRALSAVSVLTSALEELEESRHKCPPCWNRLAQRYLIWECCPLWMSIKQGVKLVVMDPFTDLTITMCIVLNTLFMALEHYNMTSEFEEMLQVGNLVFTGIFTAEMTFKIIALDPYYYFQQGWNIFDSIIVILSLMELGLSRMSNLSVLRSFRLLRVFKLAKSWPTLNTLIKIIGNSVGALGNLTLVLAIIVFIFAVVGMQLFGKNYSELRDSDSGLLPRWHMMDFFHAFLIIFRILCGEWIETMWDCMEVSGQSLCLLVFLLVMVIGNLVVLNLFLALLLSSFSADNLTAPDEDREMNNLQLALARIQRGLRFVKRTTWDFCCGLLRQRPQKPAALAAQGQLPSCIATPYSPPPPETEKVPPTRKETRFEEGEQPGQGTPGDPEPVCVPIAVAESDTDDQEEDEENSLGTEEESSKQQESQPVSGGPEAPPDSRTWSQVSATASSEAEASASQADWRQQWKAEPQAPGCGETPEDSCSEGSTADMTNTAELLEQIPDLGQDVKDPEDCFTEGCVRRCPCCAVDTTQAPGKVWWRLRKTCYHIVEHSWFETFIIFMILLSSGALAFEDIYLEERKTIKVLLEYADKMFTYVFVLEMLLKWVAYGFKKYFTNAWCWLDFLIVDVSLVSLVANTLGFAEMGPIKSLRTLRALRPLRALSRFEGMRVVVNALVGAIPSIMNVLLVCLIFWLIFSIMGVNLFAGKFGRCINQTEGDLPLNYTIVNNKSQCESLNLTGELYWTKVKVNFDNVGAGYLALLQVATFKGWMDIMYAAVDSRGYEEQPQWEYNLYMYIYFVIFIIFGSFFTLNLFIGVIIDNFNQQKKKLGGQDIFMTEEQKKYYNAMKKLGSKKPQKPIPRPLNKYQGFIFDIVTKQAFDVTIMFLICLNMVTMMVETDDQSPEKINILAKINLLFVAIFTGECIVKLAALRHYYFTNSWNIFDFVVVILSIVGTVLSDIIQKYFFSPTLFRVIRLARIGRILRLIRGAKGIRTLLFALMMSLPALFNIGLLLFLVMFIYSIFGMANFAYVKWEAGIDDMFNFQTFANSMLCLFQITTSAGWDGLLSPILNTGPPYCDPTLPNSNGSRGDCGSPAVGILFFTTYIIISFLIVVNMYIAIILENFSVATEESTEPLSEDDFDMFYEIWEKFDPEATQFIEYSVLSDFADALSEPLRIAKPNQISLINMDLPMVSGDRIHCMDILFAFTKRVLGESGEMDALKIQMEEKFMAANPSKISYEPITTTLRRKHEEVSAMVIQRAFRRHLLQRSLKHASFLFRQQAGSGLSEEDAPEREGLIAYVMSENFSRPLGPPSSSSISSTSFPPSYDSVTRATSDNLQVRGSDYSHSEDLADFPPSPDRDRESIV
pIC50 [1],pIC50 [2],Compound,other results
8.32,,O=S(=O)(Nc1nncs1)c1cc(Cl)c(Oc2ccc(Cl)cc2-c2ccnc(CN3CCC3)c2)cc1F,
> 8.40,,CC(=O)N1CCC(CCNCc2cc(-c3cc(-c4cccc(C(F)(F)F)c4)ccc3Oc3ccc(S(=O)(=O)Nc4ncns4)cc3C#N)ccn2)CC1,
,10.00,C#CCCOc1ccc(C(=O)c2ccc(CCC(=O)N3CCC(CCNCc4cc(-c5cc(-c6cccc(C(F)(F)F)c6)ccc5Oc5ccc(S(=O)(=O)Nc6ncns6)cc5C#N)ccn4)CC3)cc2)cc1,
9.15,,N#Cc1cc(S(=O)(=O)Nc2ncns2)ccc1Oc1ccc(Cl)cc1-c1cccc(CNCCC2CCNCC2)c1,
7.88,,O=S(=O)(Nc1cscn1)c1cc(Cl)c(Oc2ccc(Cl)cc2-c2ccnc(CN3CCC3)c2)cc1F,
> 8.00,,COCCOCCOCCOCCOCCOCCOCCOCCOCCOCCOCCOCCC(=O)N1CCC(CCNCc2cc(-c3cc(-c4cccc(C(F)(F)F)c4)ccc3Oc3ccc(S(=O)(=O)Nc4ncns4)cc3C#N)ccn2)CC1,pIC50 [3]: < 5.52
,,NCc1cc(-c2cc(-c3cccc(C(F)(F)F)c3)ccc2Oc2cc(F)c(S(=O)(=O)Nc3nncs3)cc2Cl)ccn1,solubility [4]: 6 µg/mL; solubility [5]: < 0.5 µg/mL; solubility [6]: < 0.5 µg/mL; solubility [7]: < 0.5 µg/mL
,9.92,Cc1cc(C)n2c1C=C1C=CC(CCCCC(=O)NCCOCCOCCC(=O)N3CCC(CCNCc4cc(-c5cc(-c6cccc(C(F)(F)F)c6)ccc5Oc5ccc(S(=O)(=O)Nc6ncns6)cc5C#N)ccn4)CC3)=[N+]1[B-]2(F)F,
,10.00,N#Cc1cc(S(=O)(=O)Nc2ncns2)ccc1Oc1ccc(-c2cccc(C(F)(F)F)c2)cc1-c1ccnc(CN)c1,

Compound,pIC50 [1],pIC50 [2],other results
N#Cc1cc(S(=O)(=O)Nc2ncns2)ccc1Oc1ccc(Cl)cc1-c1cccc(CN)c1,8.07,,
